Patent US10844062B2, “Pyridine derivative inhibiting RAF kinase and vascular endothelial growth factor receptor, method for preparing same, pharmaceutical composition containing same, and use thereof” (SAMJIN PHARMACEUTICAL CO., LTD., priority 2016, dated 2020)
Where two headings read alike, the source gives them in different places.

Tests used:
[1] = tested on: LS513 human colorectal cancer cell line xenograft; assay: Antitumor effect on human colorectal cancer LS513 cell line xenograft; assay type: in vivo, Balb/c nu/nu nude mice; conditions: oral, twice a day, 14 days; for antitumor effect (tumor growth inhibition) compared to the vehicle control: 60 mg/kg or 30 mg/kg (dose not specified per compound)
Excerpt: In this experiment, 5 to 6-week-old female Balb/c nu/nu nude mice (weighed 18 to 20 g) were used. The mice were provided from Nara Biotech Co., Ltd. During the experiment, all the animals were housed on a mouse constant temperature/constant humidity shelf (Individually Ventilated Cages System, LAB & BIO).
Each cage (37.2 cm length×19.2 cm width×13.1 cm height) was sterilized with a sterilizer, and eight mice were received in each cage. The mice were maintained in a hygienic environment controlled to a temperature of 20 to 24° C. and a humidity of 40 to 70% with a 12-hr light/12-hr dark cycle. The mice were allowed to access sterilized feed and drinking water ad libitum. The care and treatment of these animals were carried out according to the Laboratory Animal Care Guidelines of Samjin Pharmaceutical Co., Ltd.
The mice were acclimated to the housing facility for 1 week, and then 0.1 mL of a cell suspension containing 1×10^7 cells was injected subcutaneously into the right flank of each mouse. After cell transplantation, the volume of the formed tumor was measured, and mice with formed tumors having a volume of 150 mm^3 or more were randomly divided into groups (each consisting of 7 to 8 animals) for treatment with the test compounds and a control. […] Administration of the drugs was continued for 14 days. […] At 3-day intervals from the starting day of the administration, the long axis and short axis of the tumor were measured with digital vernier calipers, and the tumor volume was calculated using the following equation and recorded: Tumor volume (TV)=Long axis×short axis^2/2.
Tumor growth inhibition for absolute tumor volume was calculated using the following equation. In the following equation, V0 is the tumor volume on the first day of drug administration (day 0), and Vt is the tumor volume after last drug administration.

C-Raf = C-Raf (Homo sapiens (Human), UniProt P04049); assay: Raf kinase inhibitory activity (Raf/MEK1/MAPK2 cascade, MBP phosphorylation, 32P); assay type: biochemical
Method: (§1) In order to examine the inhibitory activities of the compounds of the present invention against Raf kinases (B-Raf, C-Raf, B-Raf^V600E), the following experiment was performed.
(§2) (1) Consecutive Signal Transduction Reaction
(§3) To a centrifugation tube, 20 μl of a dilution solvent (20 mM MOPS, pH 7.2, 25 mM (3-glycerol phosphate, 5 mM EGTA, 1 mM sodium orthovanadate, 1 mM dithiothreitol) and 20 μl of a Mg/ATP mixture (500 μM ATP and 75 mM magnesium chloride) were added. Then, each of the derivative compounds of formula 1 was added. As a control, 1 ng of activated raf, 0.4 ng of inactivated MEK1 and 1 μg of inactivated MAPK2 were added without adding Example compounds. The solutions in the tube were concentrated at the bottom of the tube by centrifugation, and then allowed to react at 30° C. for 30 minutes, and 4 μl of the mixture solution was taken and used in the next experimental step.
(§4) (2) Phosphorylation of Substrate Protein MBP by MAPK2
(§5) To 4 μl of the mixture solution taken in (1), 10 μl of a dilution solvent, 20 μg of MBP as a substrate, and 10 μl of diluted [γ-32P]ATP (1 μCi/μL) were added. The solutions in the tube were concentrated at the bottom of the tube by centrifugation, and then allowed to react at 30° C. for 30 minutes. 25 μl of the reaction solution was carefully placed on the center of 2 cm×2 cm P81 filter paper for 30 seconds. Next, the filter paper was washed three times with 0.75% phosphoric acid solution for 10 minutes each time and washed once with acetone for 5 minutes. Next, the filter paper was transferred into a scintillation vial, and 5 ml of a scintillation cocktail was added thereto. Raf activity inhibition rate (IC50) was measured by reading the radioactivity with a scintillation counter in comparison with the control.

B-Raf V600E = B-Raf V600E (Homo sapiens (Human), UniProt P15056, V600E); assay: as above; assay type: biochemical
Method: as §1, §2, §3, §4, §5

B-Raf = B-Raf (Homo sapiens (Human), UniProt P15056); assay: as above; assay type: biochemical
Method: as §1, §2, §3, §4, §5

LS513 KRAS G12V (colon) = assay: MTT assay; assay type: cell-based; conditions: Homo sapiens, LS-513, 72 h, 3 days incubation, read-out: MTT assay IC50 KRAS mutant (Colon) LS513 KRAS G12V
How it was run: (§6)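 Cells were seeded at line-dependent density and stabilised overnight at 37 °C, then exposed to compounds for 3 days at 37 °C. MTT was then added for 2 h and the formazan dissolved in DMSO.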

WiDR BRAF V600E (colon) = assay: MTT assay; assay type: cell-based; conditions: Homo sapiens, 72 h, Table 5, 3 days incubation, read-out: MTT assay IC50 BRAF mutant (Colon) WiDR BRAF V600E
How it was run: as §6

[2] = tested on: A-375P BRAF V600E (melanoma); assay: MTT assay; assay type: cell-based; conditions: A375P, 72 h; Table 5; 3 days incubation
How it was run: as §6

[3] = tested on: HCT-116 KRAS G13D (colon); assay: MTT assay; assay type: cell-based; conditions: Homo sapiens, HCT-116, 72 h; Table 5; 3 days incubation; read-out: MTT assay IC50 KRAS mutant (Colon) HCT-116 KRAS G13D
How it was run: as §6

HUVEC (VEGF) = assay: MTT assay; assay type: cell-based; conditions: Homo sapiens, 72 h, Table 5, 3 days incubation
How it was run: as §6

SW620 KRAS G12V (colon) = assay: MTT assay; assay type: cell-based; conditions: Homo sapiens, SW-620, 72 h; Table 5; 3 days incubation; read-out: MTT assay IC50 KRAS mutant (Colon) SW620 KRAS G12V
How it was run: as §6

[4] = tested on: SK-MEL2 NRAS Q61R (melanoma); assay: MTT assay; assay type: cell-based; conditions: Homo sapiens, SK-MEL-2, 72 h; Table 5; 3 days incubation
How it was run: as §6

[5] = tested on: LS513 human colorectal cancer cell line xenograft; assay: Antitumor effect on human colorectal cancer LS513 cell line xenograft; assay type: in vivo, Balb/c nu/nu nude mice; conditions: oral

Chain of B-Raf (P15056 whole entry): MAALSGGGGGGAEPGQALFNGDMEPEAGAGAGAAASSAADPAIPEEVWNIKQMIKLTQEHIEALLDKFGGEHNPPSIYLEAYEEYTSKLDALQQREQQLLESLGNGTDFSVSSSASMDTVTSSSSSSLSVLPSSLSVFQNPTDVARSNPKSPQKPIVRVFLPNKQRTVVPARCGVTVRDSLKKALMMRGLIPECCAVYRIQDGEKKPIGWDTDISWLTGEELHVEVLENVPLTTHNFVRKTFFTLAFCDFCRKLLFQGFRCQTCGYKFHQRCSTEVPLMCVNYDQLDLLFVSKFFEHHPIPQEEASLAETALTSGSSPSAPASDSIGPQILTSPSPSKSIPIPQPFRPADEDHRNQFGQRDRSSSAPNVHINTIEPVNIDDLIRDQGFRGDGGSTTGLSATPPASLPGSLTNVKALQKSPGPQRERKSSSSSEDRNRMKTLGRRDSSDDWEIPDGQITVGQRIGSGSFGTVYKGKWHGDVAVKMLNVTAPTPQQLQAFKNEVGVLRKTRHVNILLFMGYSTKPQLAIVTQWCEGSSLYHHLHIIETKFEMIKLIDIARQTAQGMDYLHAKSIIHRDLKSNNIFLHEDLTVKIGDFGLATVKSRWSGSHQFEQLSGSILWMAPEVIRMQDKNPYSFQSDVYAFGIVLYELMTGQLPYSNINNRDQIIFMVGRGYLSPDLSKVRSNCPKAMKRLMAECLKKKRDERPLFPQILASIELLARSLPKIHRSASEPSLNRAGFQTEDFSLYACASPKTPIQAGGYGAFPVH
Chain of C-Raf (P04049 whole entry): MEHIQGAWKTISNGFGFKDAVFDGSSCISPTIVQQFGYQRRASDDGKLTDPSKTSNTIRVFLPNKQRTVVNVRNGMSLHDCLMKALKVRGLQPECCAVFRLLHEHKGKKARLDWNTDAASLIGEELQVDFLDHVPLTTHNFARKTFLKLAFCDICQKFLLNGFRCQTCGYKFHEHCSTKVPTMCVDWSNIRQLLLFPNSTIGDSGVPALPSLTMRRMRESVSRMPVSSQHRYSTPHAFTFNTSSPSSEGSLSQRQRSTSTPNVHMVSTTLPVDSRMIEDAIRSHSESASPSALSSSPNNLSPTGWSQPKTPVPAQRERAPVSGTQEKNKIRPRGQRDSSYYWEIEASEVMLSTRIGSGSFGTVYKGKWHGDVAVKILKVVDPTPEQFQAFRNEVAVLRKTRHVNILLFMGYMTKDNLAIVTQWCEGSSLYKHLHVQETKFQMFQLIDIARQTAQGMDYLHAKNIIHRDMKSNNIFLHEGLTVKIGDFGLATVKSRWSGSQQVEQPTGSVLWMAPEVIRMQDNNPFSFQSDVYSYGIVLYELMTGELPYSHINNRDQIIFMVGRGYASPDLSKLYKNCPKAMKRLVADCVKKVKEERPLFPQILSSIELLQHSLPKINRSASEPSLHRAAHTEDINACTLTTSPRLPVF
Chain of B-Raf V600E (P15056 whole entry V600E): as the sequence (P15056 whole entry) above, with V600E counted along it

Row | Compound | antitumor effect (tumor growth inhibition) compared to the control group ([1]; 30 mg/kg) [%] | antitumor effect (tumor growth inhibition) compared to the control group ([1]; 60 mg/kg) [%] | IC50 (C-Raf) [nM] | IC50 (B-Raf V600E) [nM] | IC50 (B-Raf) [nM] | IC50 (LS513 KRAS G12V (colon); Table 4) [nM] | IC50 (LS513 KRAS G12V (colon); Table 5) [nM] | IC50 (WiDR BRAF V600E (colon)) [nM] | IC50 [2] [nM] | IC50 [3] [nM] | IC50 (HUVEC (VEGF)) [nM] | IC50 (SW620 KRAS G12V (colon)) [nM] | IC50 [4] [nM] | antitumor effect (tumor growth inhibition) ([5]; 50 mg/kg, once a day, 13 days) [%] | antitumor effect (tumor growth inhibition) compared to the vehicle control [1] [%] | antitumor effect (tumor growth inhibition) ([5]; 12.5 mg/kg, 21 days) [%] | antitumor effect (tumor growth inhibition) ([5]; 25 mg/kg, 21 days) [%] | antitumor effect (tumor growth inhibition) ([5]; 50 mg/kg, 21 days) [%]
1 | O=C(Nc1cc(Nc2ncccc2-c2ncnc3[nH]cnc23)ccc1F)c1cccc(C(F)(F)F)c1 [Example 30, N-(5-(3-(9H-Purin-6-Yl)Pyridin-2-Ylamino)-2-Fluorophenyl)-3-(Trifluoromethyl)Benzamide] | 76.9 | 88.7 | 0.7 | 5.2 | 2.7 | 143 | 79 | 636 | 246 | 145 | 13 | 864 | 122 |  |  |  |  | 
2 | COc1ccc(C(=O)Nc2ccc(F)c(Nc3ncccc3-c3ncnc4[nH]cnc34)c2F)cc1 [Example 53, N-(3-(3-(9H-Purin-6-Yl)Pyridin-2-Ylamino)-2,4-Difluorophenyl)-4-Methoxybenzamide] |  |  | 7 | 6 | 14 | > 10000 | 29 | 391 | 4 | 17 | 5.8 | 180 | 35 |  |  |  |  | 
3 | O=C(Nc1cc(Nc2ncccc2-c2ncnc3[nH]cnc23)ccc1F)c1cc(C(F)(F)F)cc(C(F)(F)F)c1 [Example 65, N-2-Fluoro-5-[3-(9H-Purin-6-Yl)Pyridin-2-Ylamino)Phenyl-3,5-Bis(Trifluoromethyl)Benzamide] |  |  | 257 | 187 | 331 | 100 | 322 | 247 |  | 208 | 850 | 700 |  | 95.42 |  |  |  | 
4 | CC(C)(C#N)c1cccc(C(=O)Nc2ccc(F)c(Nc3ncccc3-c3ncnc4[nH]cnc34)c2F)c1 [Example 9, N-(3-(3-(9H-purin-6-yl)pyridin-2-ylamino)-2,4-difluorophenyl)-3-(2-cyanopropan-2-yl)benzamide] |  |  | 0.6 | 0.2 | 2 | 656 | 138 | 58 | 40 | 75 | 44 | 643 | 106 |  |  |  |  | 
5 | CC(C)(C#N)c1cccc(C(=O)Nc2cccc(Nc3ncccc3-c3ncnc4[nH]cnc34)c2)c1 [Example 23, N-(3-(3-(9H-purin-6-yl)pyridin-2-ylamino)phenyl)-3-(2-cyanopropan-2-yl)benzamide] |  |  | 8 | 7 | 17 | 687 | 95 | 62 | 12 | 50 | 28 | 321 | 58 |  |  |  |  | 
6 | CC(C)(C#N)c1cc(C(=O)Nc2cc(Nc3ncccc3-c3ncnc4[nH]cnc34)ccc2F)cc(C(F)(F)F)c1 [Example 154, N-5-[(3-(9H-purin-6-yl)pyridin-2-yl)amino]-2-fluorophenyl-3-(2-cyanopropan-2-yl)-5-(trifluoromethyl)benzamide] |  |  |  |  |  | 326 | 326 | 97 |  |  |  |  |  | 83.19 |  |  |  | 
7 | Cc1cc(C(=O)Nc2cc(Nc3ncccc3-c3ncnc4[nH]cnc34)ccc2F)cc(C(F)(F)F)c1 [Example 139, N-5-[(3-(9H-purin-6-yl)pyridin-2-yl)amino]-2-fluorophenyl-3-methyl-5-(trifluoromethyl)benzamide] |  |  |  |  |  | 99 | 96 | 116 |  |  |  |  |  | 91.04 |  |  |  | 
8 | CC(C)(C#N)c1cc(F)cc(C(=O)Nc2cc(Nc3ncccc3-c3ncnc4[nH]cnc34)ccc2F)c1 [Example 33, N-(5-(3-(9H-Purin-6-Yl)Pyridin-2-Ylamino)-2-Fluorophenyl)-3-(2-Cyanopropan-2-Yl)-5-Fluorobenzamide] |  |  | 24 | 33 | 94 | 199 |  |  |  |  |  |  |  |  | 96.0 |  |  | 
9 | O=C(Nc1ccc(F)c(Nc2ncccc2-c2ncnc3[nH]cnc23)c1F)c1cccc(C(F)(F)F)c1 [Example 1, N-(3-(3-(9H-purin-6-yl)pyridin-2-ylamino)-2,4-difluorophenyl)-3-(trifluoromethyl)benzamide] |  |  | 23 | 16 | 34 | 1180 | 278 | 115 | 95 | 101 | 22 | 849 |  |  |  |  |  | 
10 | O=C(Nc1cc(Nc2ncccc2-c2ncnc3[nH]cnc23)ccc1F)c1cc(Cl)cc(C(F)(F)F)c1 [Example 135, N-5-[(3-(9H-purin-6-yl)pyridin-2-yl)amino]-2-fluorophenyl-3-chloro-5-(trifluoromethyl)benzamide] |  |  | 34 | 86 | 161 | 80 | 88 | 68 |  | 74 | 733 | 317 |  | 92.66 |  | 52.36 | 74.73 | 86.85
11 | COc1cc(C(=O)Nc2cc(Nc3ncccc3-c3ncnc4[nH]cnc34)ccc2F)cc(C(F)(F)F)c1 [Example 63, N-2-Fluoro-5-[3-(9H-Purin-6-Yl)Pyridin-2-Ylamino)Phenyl-3-Methoxy-5-(Trifluoromethyl)Benzamide] |  |  |  |  |  | 690 |  |  |  |  |  |  |  |  | 57.9 |  |  | 
